Laboratory results reported in US20100004131A1, “SOLID FORMULATIONS OF HYDROGEN CYANAMIDE FOR AGRICULTURAL APPLICATIONS” (Metbro Distributing, L.P., priority 2007, published 2010).

Tests used:
Format in all cases: in vivo
Conditions in all cases: applied in granular form; pre-plant and final test results collectively
[1] = system: reniform nematode (Rotylenchulus reniformis); experiment: Nematicidal activity of granules in infested silt loam pots: reniform nematodes
Procedure: (§1) The soil used in this study was naturally infested with three species of nematodes, one of which was deleterious, and the other two beneficial, and observations were made of both the survival of the nematodes and the growth of the soybean plants.
(§2) The hydrogen cyanamide granules were prepared by impregnating PROFILE granules (15 mesh) with DORMEX (50% hydrogen cyanamide in aqueous solution with phosphate buffer), and drying the moist granules on trays at 20° C. for 24 hours to achieve granules containing hydrogen cyanamide at a concentration of 25% by weight. Planting pots measuring 10 cm in diameter were used. Each pot contained 1 kg of silt loam from a cotton field, pH 6.2, CEC<10 meq/100 g soil, organic matter<1.0%, the soil being severely infested with the deleterious reniform nematode (Rotylenchulus reniformis). […]
(§3) After the polyethylene bags were removed, each pot was planted with Hutcheson soybean seeds at 5 seeds per pot, and the seeds were allowed to germinate and the plants to grow for 39 days. […] The number of surviving nematodes in each pot were determined, as were the number of nematodes in the root systems, the weights of both the fresh shoots and the roots, and the shoot height. […] Fischer's Least Significant Difference at p 0.05 was calculated when appropriate. […]

Dorylaimida nematodes = experiment: Nematicidal activity of granules in infested silt loam pots: Dorylaimida nematodes
Procedure: as §1, §2, §3

[2] = system: microbivorous (beneficial) nematodes; experiment: Nematicidal activity of granules in infested silt loam pots: microbivorous nematodes
Procedure: as §1, §2, §3

SMILES: N#CN [hydrogen cyanamide]
- nematicidal activity against the reniform nematodes [1]: without loss of nematicidal activity
- populations of the Dorylaimida nematodes (Dorylaimida nematodes): affected
- populations of the microbivorous nematodes [2]: not significantly affected
